Active and inactive are the calls of the source. How the calls were made is not given here.
tested on: INS-1E Gaussia luciferase insulin secretion, no glucose, luminescence; test: glucose-independent GLuc insulin release activation – cell-based, INS-1E, Gaussia luciferase, luminescence, cherry-pick, counter-screen for glucose-dependent insulin secretion activators, dose response (AID 977606)

| Compound | AC40 |
| --- | --- |
| Oc1ccccc1-c1cc(C(F)(F)C(F)F)nc(-c2ccccc2)n1 | 3.86 µM |
| COc1ccc(C(O)c2nc(-c3ccc(OC)c(OC)c3)cs2)cc1 (stereo not given) | 34.2 µM |
| COc1cc(/C=N/NC(=O)Nc2ccccc2)ccc1OCCOc1ccccc1C | 1.92 µM |
| CC(C)Sc1nc2c(c(=O)[nH]c(=O)n2C)n1Cc1ccc(Cl)cc1 | 14 µM |
| CC1CCC(C(C)C)C(OCC(O)CNC(C)c2ccccc2)C1 (stereo not given) | 11.8 µM |
| COc1ccc(Br)cc1C(=O)Nc1cc(C)cc(C)c1 | 6.69 µM |
| COC(=O)C1=C(C)N(Cc2cccc(C(F)(F)F)c2)C(=NCc2ccc(OC)cc2)NC1c1cccc(Cl)c1 (stereo not given) | 5.16 µM |
| CC(C)n1nc(C(=O)Nc2ccccc2N2CCOCC2)c2ccccc2c1=O | 6.12 µM |
| O=c1c2ccccc2sn1-c1ccc(F)cc1 | 2.43 µM |
| O=C(Nc1ccc2c(c1)OCO2)c1sc2cc(Cl)ccc2c1Cl | 4.98 µM |
| COc1cccc(OCc2nc3c4cnn(-c5ccccc5)c4ncn3n2)c1 | 6.42 µM |
| C/C(=N\NC(=O)c1cccc(Br)c1)c1ccc(Br)cc1 | 13 µM |
| COc1ccc(C(=O)NC(=S)Nc2ccc3c4c(cccc24)CC3)cc1OC | 6.85 µM |
| COc1ccc(C2=NN(C(C)=O)C(c3cccs3)C2)cc1OC (stereo not given) | > 35 µM (inactive) |
| CC1CCN(S(=O)(=O)c2ccc(C(=O)OCc3ccc4c(c3)OCO4)cc2)CC1 | 11.4 µM |

— PubChem BioAssay AID977606 (Broad Institute, 2014)
